Reference: PubChem BioAssay (NCI)
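In this assay, cells in 96-well plates receive the compound at five concentrations for 48 hours. Endpoints are linearly interpolated between the surrounding concentrations. GI50: concentration for 50% inhibition of growth. TGI is the concentration that stops growth completely.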

Legend:
Test in all cases: NCI tumour cell line growth inhibition, 48 h
UACC-62 melanoma = test system: UACC-62 melanoma
CCRF-CEM leukemia = test system: CCRF-CEM leukemia
SR leukemia = test system: SR leukemia
DU-145 prostate = test system: DU-145 prostate
SF-268 CNS = test system: SF-268 CNS
BT-549 breast = test system: BT-549 breast
NCI-H460 lung = test system: NCI-H460 lung
KM12 colon = test system: KM12 colon
HCT-116 colon = test system: HCT-116 colon
SK-MEL-5 melanoma = test system: SK-MEL-5 melanoma
OVCAR-4 ovarian = test system: OVCAR-4 ovarian
EKVX NSCLC = test system: EKVX NSCLC
OVCAR-5 ovarian = test system: OVCAR-5 ovarian
HOP-62 NSCLC = test system: HOP-62 NSCLC
MDA-MB-231 breast = test system: MDA-MB-231 breast
ACHN renal = test system: ACHN renal
RPMI-8226 leukemia = test system: RPMI-8226 leukemia
OVCAR-8 ovarian = test system: OVCAR-8 ovarian
MOLT-4 leukemia = test system: MOLT-4 leukemia
HCC-2998 colon = test system: HCC-2998 colon
HOP-92 NSCLC = test system: HOP-92 NSCLC
U251 CNS = test system: U251 CNS
UO-31 renal = test system: UO-31 renal
T-47D breast = test system: T-47D breast
NCI-H522 lung = test system: NCI-H522 lung
IGROV1 ovarian = test system: IGROV1 ovarian
LOX IMVI melanoma = test system: LOX IMVI melanoma

`COc1ccc(C(=O)c2cc3c(N)c(C(=O)Nc4ccccc4)sc3nc2C)cc1` gave a GI50 (UACC-62 melanoma) of 0.952 µM, a TGI (UACC-62 melanoma) of over 100 µM and a GI50 (CCRF-CEM leukemia) of 0.852 µM. It also gave a TGI (CCRF-CEM leukemia) of over 100 µM, a GI50 (SR leukemia) of 0.376 µM and a TGI (SR leukemia) of over 100 µM. For the same compound, the GI50 (DU-145 prostate) was 2.21 µM, the TGI (DU-145 prostate) was over 100 µM and the GI50 (SF-268 CNS) was 3.65 µM. It also gave a TGI (SF-268 CNS) of over 100 µM, a GI50 (BT-549 breast) of 38.6 µM and a TGI (BT-549 breast) of over 100 µM. For the same compound, the GI50 (NCI-H460 lung) was 0.439 µM, the TGI (NCI-H460 lung) was 3.93 µM and the GI50 (KM12 colon) was 0.539 µM. For the same compound, the TGI (KM12 colon) was over 100 µM, the GI50 (HCT-116 colon) was 0.635 µM and the TGI (HCT-116 colon) was over 100 µM. It also gave a GI50 (SK-MEL-5 melanoma) of 0.459 µM, a TGI (SK-MEL-5 melanoma) of 10.6 µM and a GI50 (OVCAR-4 ovarian) of 16.1 µM. The TGI (OVCAR-4 ovarian) was over 100 µM, the GI50 (EKVX NSCLC) was 5.42 µM and the TGI (EKVX NSCLC) was over 100 µM. It also gave a GI50 (OVCAR-5 ovarian) of 3.1 µM, a TGI (OVCAR-5 ovarian) of over 100 µM and a GI50 (HOP-62 NSCLC) of 1.69 µM. It also gave a TGI (HOP-62 NSCLC) of over 100 µM, a GI50 (MDA-MB-231 breast) of 2.43 µM and a TGI (MDA-MB-231 breast) of over 100 µM. For the same compound, the GI50 (ACHN renal) was 1.56 µM, the TGI (ACHN renal) was over 100 µM and the GI50 (RPMI-8226 leukemia) was 1.78 µM. For the same compound, the TGI (RPMI-8226 leukemia) was over 100 µM, the GI50 (OVCAR-8 ovarian) was 3.71 µM and the TGI (OVCAR-8 ovarian) was over 100 µM. For the same compound, the GI50 (MOLT-4 leukemia) was 0.796 µM, the TGI (MOLT-4 leukemia) was over 100 µM and the GI50 (HCC-2998 colon) was 1.96 µM. For the same compound, the TGI (HCC-2998 colon) was 55.3 µM, the GI50 (HOP-92 NSCLC) was 86.3 µM and the TGI (HOP-92 NSCLC) was over 100 µM. It also gave a GI50 (U251 CNS) of 0.704 µM, a TGI (U251 CNS) of over 100 µM and a GI50 (UO-31 renal) of 2.64 µM. For the same compound, the TGI (UO-31 renal) was over 100 µM, the GI50 (T-47D breast) was 0.74 µM and the TGI (T-47D breast) was over 100 µM. For the same compound, the GI50 (NCI-H522 lung) was 1.89 µM, the TGI (NCI-H522 lung) was over 100 µM and the GI50 (IGROV1 ovarian) was 2.51 µM. The TGI (IGROV1 ovarian) was over 100 µM, the GI50 (LOX IMVI melanoma) was 0.739 µM and the TGI (LOX IMVI melanoma) was over 100 µM.
